Experimental data taken from PMC11850406, “Large-scale screening of HIV-1 T-cell epitopes restricted by 12 prevalent HLA-A allotypes in Northeast Asia and universal detection of HIV-1-specific CD8^+ T cells” (Frontiers in Microbiology, 2025).
Like-named read-outs stand apart in the source and are kept apart here. Where no end group is shown, it is not given here.

Experiments:
[1] = biological target: HLA-A2402 (Homo sapiens, UniProt P04439, D101N/D140Y/D185E/E176V/E190D/F33S/G103R/G107R/I119L/I121M/I306V/K335N/L105A/L180Q/L300P/N151K/N90K/Q86E/Q94H/R106L/R138H/R89G/T104I/T345S/V100E/W191G/Y123F); assay: cell-based; assay type: binding; settings: for inhibition at 5 µM / inhibition at 15 µM / 5-μM inhibition (%) / 15-μM inhibition (%): A2402, 24 h, 4°C, flow cytometry; for inhibition at 5 µM / 5-μM inhibition (%): peptide 5 μM vs FITC-labeled reference peptide 300 nM; for inhibition at 15 µM / 15-μM inhibition (%): peptide 15 μM vs FITC-labeled reference peptide 300 nM
[2] = biological target: HLA-A3303 (Homo sapiens, UniProt P04439, A270S/D185E/E176V/E277Q/E87N/F33T/G231S/H175R/I121M/I218V/I322F/K168Q/L300P/L318F/M331R/P217A/Q86R/Q94H/R138Q/T323A/T345S/T97I/V358M); assay: Peptide competitive binding assay, HMy2.CIR cells expressing A3303
[3] = biological target: T1, HLA-A0201 (Homo sapiens, UniProt P04439, D140Y/D185E/D98H/E176V/E277Q/G131W/G231S/I119V/I121R/I166T/I218V/L300P/L318F/N151K/N90K/P208A/P217A/Q86G/Q94H/R138H/R169H/T345S); assay: cell-based; assay type: binding; settings: A0201; for 5-μM inhibition (%) / inhibition at 5 µM: peptide 5 μM vs FITC-labeled reference peptide 300 nM; for 5-μM inhibition (%) / 15-μM inhibition (%) / inhibition at 5 µM / inhibition at 15 µM: 24 h, 4°C, flow cytometry; for 15-μM inhibition (%) / inhibition at 15 µM: peptide 15 μM vs FITC-labeled reference peptide 300 nM; for IC50: class from inhibition at 5 and 15 μM of FITC-labeled reference peptide binding, read-out: Affinity; for inhibition at 5 µM: read-out: 5-μM inhibition (%); for inhibition at 15 µM: read-out: 15-μM inhibition (%)
T1 construct: expressed in transfected cells; host or cells: HMy2.CIR

[4] = biological target: T2, HLA-A0203 (Homo sapiens, UniProt P04439, A173T/D140Y/D185E/D98H/E277Q/G131W/G231S/I119V/I121R/I166T/I218V/L180W/L300P/L318F/N151K/N90K/P208A/P217A/Q86G/Q94H/R138H/R169H/T345S); assay: cell-based; assay type: binding; settings: A0203; for 5-μM inhibition (%) / inhibition at 5 µM: peptide 5 μM vs FITC-labeled reference peptide 300 nM; for 5-μM inhibition (%) / 15-μM inhibition (%) / inhibition at 5 µM / inhibition at 15 µM: 24 h, 4°C, flow cytometry; for 15-μM inhibition (%) / inhibition at 15 µM: peptide 15 μM vs FITC-labeled reference peptide 300 nM; for inhibition at 5 µM: read-out: 5-μM inhibition (%); for inhibition at 15 µM: read-out: 15-μM inhibition (%)
T2 construct: expressed in transfected cells; host or cells: HMy2.CIR

[5] = biological target: T3, HLA-A1101 (Homo sapiens, UniProt P04439, A114D/D185E/E176A/F33Y/L180Q/S129P/T187R); assay: cell-based; assay type: binding; settings: for inhibition at 5 µM / 5-μM inhibition (%): peptide 5 μM vs FITC-labeled reference peptide 300 nM; for inhibition at 5 µM / inhibition at 15 µM / 5-μM inhibition (%) / 15-μM inhibition (%): 24 h, 4°C, flow cytometry; for inhibition at 5 µM: read-out: 5-μM inhibition (%); for inhibition at 15 µM / 15-μM inhibition (%): peptide 15 μM vs FITC-labeled reference peptide 300 nM; for inhibition at 15 µM: read-out: 15-μM inhibition (%)
T3 construct: expressed in transfected cells; host or cells: HMy2.CIR

[6] = A3303, peptide 5 μM vs FITC-labeled reference peptide 300 nM, 24 h, 4°C, flow cytometry
[7] = A3303, peptide 15 μM vs FITC-labeled reference peptide 300 nM, 24 h, 4°C, flow cytometry
[8] = A1101, class from inhibition at 5 and 15 μM of FITC-labeled reference peptide binding, read-out: Affinity

Which results are given for MYSPVSILDI [Peptide P53]?
IC50 [1]: < 5 µM; inhibition at 5 µM [1]: 75.5%; inhibition at 15 µM [1]: 98.1%

Which results are given for NITGILLTR [Peptide P107]?
5-μM inhibition (%) [2, 6]: 34.61%; 15-μM inhibition (%) [2, 7]: 49.22%

Which IC50 [1] does the source give for NYTNQIYEI [Peptide P47] here?
The IC50 was under 5 µM.

And the inhibition at 5 µM [1]?
The inhibition at 5 µM was 87.5%.

And the inhibition at 15 µM [1]?
Its inhibition at 15 µM is 94.5%.

With PYNTPVFAI [Peptide P63] as the sequence, how does the IC50 [1] read?
The IC50 was 5 to 15 µM.

And the inhibition at 5 µM [1]?
The inhibition at 5 µM was 25.7%.

What about the inhibition at 15 µM [1] of the same sequence?
Its inhibition at 15 µM is 55.6%.

What does the source list for QMQEDVISL [Peptide P4]?
5-μM inhibition (%) [3]: 10.81%; 15-μM inhibition (%) [3]: 44.70%; 5-μM inhibition (%) [4]: 0.00%; 15-μM inhibition (%) [4]: 0.00%

For QTNSAILMQR [Peptide P105], which “5-μM inhibition (%)” value [2, 6] is on record?
Its value is 29.22%.

What about the “15-μM inhibition (%)” value [2, 7] of the same sequence?
The value was 45.63%.

How did the “5-μM inhibition (%)” value [2, 6] turn out when QTVYALFYR [Peptide P108] was run?
Its value is 35.63%.

What about the “15-μM inhibition (%)” value [2, 7] of the same sequence?
The value was 40.50%.

With RQGTISFNF [Peptide P61] as the sequence, how does the “5-μM inhibition (%)” value [1] read?
Its value is 12.82%.

What about the “15-μM inhibition (%)” value [1] of the same sequence?
Its value is 41.47%.

With RTAHTNDVK [Peptide P39] as the sequence, how does the IC50 [5, 8] read?
Its IC50 is under 5 µM.

And the inhibition at 5 µM ([5]; A1101)?
The inhibition at 5 µM was 60.4%.

What about the inhibition at 15 µM ([5]; A1101) of the same sequence?
Its inhibition at 15 µM is 86.2%.

SILRGGKLDK [Peptide P30] was tested. Which “5-μM inhibition (%)” value ([5]; A1101) did it give?
Its value is 19.77%.

And the “15-μM inhibition (%)” value ([5]; A1101)?
The value was 47.09%.

With SLAEGEIII [Peptide P3] as the sequence, how does the IC50 [3] read?
Its IC50 is 5 to 15 µM.

What about the inhibition at 5 µM [3] of the same sequence?
Its inhibition at 5 µM is 26.1%.

And the inhibition at 15 µM [3]?
Its inhibition at 15 µM is 66.2%.

And the IC50 ([4]; class from inhibition at 5 and 15 μM of FITC-labeled reference peptide binding, read-out: Affinity)?
Its IC50 is 5 to 15 µM.

And the inhibition at 5 µM [4]?
Its inhibition at 5 µM is 0.12%.

And the inhibition at 15 µM [4]?
Its inhibition at 15 µM is 51.1%.

Which results are given for SLVDTIAIAV [Peptide P1]?
IC50 [3]: 5 to 15 µM; inhibition at 5 µM [3]: 38%; inhibition at 15 µM [3]: 78.5%; inhibition at 5 µM [4]: 28.2%; inhibition at 15 µM [4]: 31.9%

Which results are given for SSWSNKSQK [Peptide P24]?
5-μM inhibition (%) ([5]; A1101): 20.55%; 15-μM inhibition (%) ([5]; A1101): 36.55%

For SVIKQACPK [Peptide P21], which IC50 [5] is on record?
Its IC50 is 5 to 15 µM.

And the inhibition at 5 µM ([5]; A1101)?
The inhibition at 5 µM was 29.7%.

And the inhibition at 15 µM ([5]; A1101)?
The inhibition at 15 µM was 68.9%.

How did the IC50 [5] turn out when SVPLDESFRK [Peptide P42] was run?
Its IC50 is under 5 µM.

And the inhibition at 5 µM ([5]; A1101)?
The inhibition at 5 µM was 89.9%.

And the inhibition at 15 µM ([5]; A1101)?
The inhibition at 15 µM was 93.8%.

For SVQCTHGIK [Peptide P25], which IC50 [5, 8] is on record?
Its IC50 is under 5 µM.

What about the inhibition at 5 µM ([5]; A1101) of the same sequence?
Its inhibition at 5 µM is 61.4%.

What about the inhibition at 15 µM ([5]; A1101) of the same sequence?
Its inhibition at 15 µM is 85.6%.

Which inhibition at 5 µM [2, 6] does the source give for TFYVDGAASR [Peptide P110] here?
The inhibition at 5 µM was 78.2%.

What about the inhibition at 15 µM [2, 7] of the same sequence?
Its inhibition at 15 µM is 90.1%.

What about the IC50 ([2]; read-out: Affinity) of the same sequence?
The IC50 was under 5 µM.

With TTLFCASDAK [Peptide P28] as the sequence, how does the IC50 [5] read?
Its IC50 is under 5 µM.

What about the inhibition at 5 µM ([5]; A1101) of the same sequence?
Its inhibition at 5 µM is 78.4%.

And the inhibition at 15 µM ([5]; A1101)?
Its inhibition at 15 µM is 92.2%.

What does the source list for TVQPIQLPEK [Peptide P35]?
IC50 [5]: < 5 µM; inhibition at 5 µM ([5]; A1101): 88.7%; inhibition at 15 µM ([5]; A1101): 93.9%

For TYQIYQEPF [Peptide P58], which IC50 [1] is on record?
The IC50 was under 5 µM.

What about the inhibition at 5 µM [1] of the same sequence?
Its inhibition at 5 µM is 54.1%.

What about the inhibition at 15 µM [1] of the same sequence?
The inhibition at 15 µM was 95.3%.

With VQMAVFIHNF [Peptide P64] as the sequence, how does the IC50 [1] read?
Its IC50 is 5 to 15 µM.

And the inhibition at 5 µM [1]?
The inhibition at 5 µM was 31.2%.

What about the inhibition at 15 µM [1] of the same sequence?
Its inhibition at 15 µM is 50.2%.

With VTENFNMWK [Peptide P26] as the sequence, how does the IC50 [5] read?
Its IC50 is under 5 µM.

What about the inhibition at 5 µM ([5]; A1101) of the same sequence?
Its inhibition at 5 µM is 86.6%.

What about the inhibition at 15 µM ([5]; A1101) of the same sequence?
Its inhibition at 15 µM is 92.9%.

Which results are given for WWMEYWQATW [Peptide P57]?
IC50 [1]: 5 to 15 µM; inhibition at 5 µM [1]: 29.2%; inhibition at 15 µM [1]: 70.7%

Which “5-μM inhibition (%)” value [1] does the source give for WYIKIFIII [Peptide P48] here?
Its value is 1.56%.

What about the “15-μM inhibition (%)” value [1] of the same sequence?
Its value is 6.91%.

What does the source list for WYIKIFIMI [Peptide P51]?
5-μM inhibition (%) [1]: 3.34%; 15-μM inhibition (%) [1]: 29.97%

YMLKHLVWA [Peptide P7] was tested. Which “5-μM inhibition (%)” value [3] did it give?
The value was 8.94%.

What about the “15-μM inhibition (%)” value [3] of the same sequence?
The value was 16.50%.

And the “5-μM inhibition (%)” value [4]?
The value was 3.83%.

What about the “15-μM inhibition (%)” value [4] of the same sequence?
Its value is 19.15%.

YWQATWIPEW [Peptide P60] was tested. Which IC50 [1] did it give?
The IC50 was under 5 µM.

And the inhibition at 5 µM [1]?
The inhibition at 5 µM was 97.5%.

And the inhibition at 15 µM [1]?
Its inhibition at 15 µM is 97.8%.
